Results published in patent US8178506B2, “Oligomeric compounds and compositions for use in modulation of small non-coding RNAs” (Regulus Therapeutics Inc., priority 2003, dated 2012).
In the oligonucleotide strings, read from the 5' end, every base follows the letter of its sugar. An asterisk marks phosphorothioate; unmarked linkages are phosphodiester. Other units and linkages are bracketed, terminal groups are in braces. A string of capitals states the bases alone. e = 2'-O-(2-methoxyethyl) (MOE); [5mC] = 5-methylcytosine; d = 2'-deoxy (DNA)

How the values were obtained:
DIO mice = test: Diet-induced obesity (DIO) mice; assay type: in vivo; details: for liver toxicity (plasma transaminase levels, weekly): 25 mg/kg s.c. twice weekly, 25 mg/kg
Protocol: As described, supra, the C57BL/6 mouse strain is reported to be susceptible to hyperlipidemia-induced atherosclerotic plaque formation, and when these mice are fed a high-fat diet, they develop diet-induced obesity (DIO). Accordingly, the DIO mouse model is useful for the investigation of obesity and development of agents designed to treat these conditions. In one embodiment of the present invention, oligomeric compounds targeting miRNAs were tested in the DIO model. Normal C57/BL6 male mice were fed a high fat diet (40% fat, 41% carbohydrate, 18% protein) for 12 weeks before the study began. DIO mice were then randomized by weight and insulin values. Initial body fat composition was determined by Dual X-ray Absorptiometry (DEXA) Scan. DIO mice were then subcutaneously injected with oligomeric compounds of the invention at a dose of 25 mg/kg, twice weekly. DIO mice were treated with oligomeric compounds ISIS Numbers 327901 and 340927 targeting mir-143, ISIS Numbers 327892 and 340926 targeting mir-131/mir-9, ISIS Numbers 327878 and ISIS Number 345349 targeting mir-203, and ISIS Numbers 327889 and 340925, targeting mir-23b. […] DEXA scans were also performed at weeks 0, 3 and 5 after treatment with the oligomeric compounds to assess the fat mass to lean mass ratio. The effects of target inhibition on levels of plasma glucose and insulin, liver transaminases, cholesterol and triglycerides, were also assessed weekly by tail bleed, and after the treatment period, mice were sacrificed and liver and kidney heart, as well as white adipose tissue (WAT) tissues collected. The mRNA expression levels of the Glut4, aP2, HSL and PPARγ marker genes are also assessed. […] Furthermore, some improvement in body composition (a reduction in body weight and fat mass) was observed.

mir-15a miRNA = test: pGL3-mir-15a sensor luciferase assay in HeLa cells; assay type: cell-based, human; details: pGL3-mir-15a sensor-expressing HeLa cells
Source text: In order to assess the ability of miRNAs to bind predicted miRNA binding sites and regulate the expression of the luciferase reporter, in some embodiments, expression systems based on the pGL3-Control (Promega Corp., Madison Wis.) reporter vector and comprising either a mir-15a, mir-21, or a mir-23b miRNA binding site were developed and used in transient transfections of HeLa cells to determine whether the endogenous mir-15a, mir-21, or mir-23b miRNAs, respectively, could repress luciferase reporter gene expression.
The pGL3-mir-15a sensor plasmid was created by cloning the sequence ([…]; SEQ ID NO: 369), complementary to the mir-15a miRNA, into the Xba site of the pGL3-Control plasmid, placing the potential miRNA-binding site in the 3′UTR of the luciferase reporter. This reporter plasmid was used to transfect HeLa cells and it was observed that the endogenous mir-15a miRNA was able to inhibit luciferase expression from the pGL3-mir-15a sensor plasmid. Thus, to further evaluate the ability of the mir-15a miRNA to bind this target site encoded by the pGL3-mir-15a sensor plasmid, and to assess the ability of oligomeric compounds to interfere with mir-15a-mediated silencing, pGL3-mir-15a sensor-expressing HeLa cells were treated with varying concentrations (3-, 10- or 30 nM) of the following oligomeric compounds: ISIS Number 327951 (SEQ ID NO: 369) is a uniform 2′-MOE compound targeting the mature mir-15a-1 miRNA. ISIS Numbers 356213 (SEQ ID NO: 878), 356215 (SEQ ID NO: 879), 356216 (SEQ ID NO: 880), 356218 (SEQ ID NO: 881), 356221 (SEQ ID NO: 882), 356227 (SEQ ID NO: 883) and 356229 (SEQ ID NO: 884) are phosphorothioate, uniform 2′-MOE oligomeric compounds designed and synthesized to target the entire length of the mir-15a pri-miRNA molecule (described in detail in Example 28, below). […] The data presented in Table 42 are the average of three trials and are presented as percent untreated control (luciferase plasmid only, not treated with oligomeric compound) luciferase expression, normalized to pRL-CMV levels.

T47Dp53 cells = test: Cell cycle assay in T47Dp53 cells; assay type: cell-based, human; details: 150 nM, 48 hours, relative to untreated control
Protocol: In further studies, additional cell lines were treated with oligomeric compounds targeted against miRNAs to assess the effects of each oligomeric compound on cell cycling. BJ, B16, T47D, and HeLa cells were cultured and transfected as described above. […] T47Dp53 cells are T47D cells that have been transfected with and selected for maintenance of a plasmid that expresses a wildtype copy of the p53 gene (for example, pCMV-p53; Clontech, Palo Alto, Calif.), using standard laboratory procedures. BJ cells were treated with 200 nM of each oligomeric compound, and T47D, T47Dp53, HeLa, and B16 cells were treated with 150 nM of each oligomeric compound. The human foreskin fibroblast BJ cell line represents a non-cancer cell line, while HeLa, T47D, T47Dp53 cells and the mouse melanoma cell line B16-F10 represent cancerous cell lines. For comparison, oligomeric compounds ISIS 183891 (SEQ ID NO: 847) and ISIS 285717 ([…]; herein incorporated as SEQ ID NO: 857), both targeting the kinesin-like 1/Eg5 mRNA, involved in cell cycling, were used as positive controls. The random-mer ISIS 29848 was used as a negative control. Additionally, the oligomeric compounds ISIS Number 25690 ([…]; herein incorporated as SEQ ID NO: 858) and ISIS Number 25691 ([…]; herein incorporated as SEQ ID NO: 859), targeted to nucleotides 3051-3070 and 3085-3104, respectively, of the mRNA encoding the Drosha RNase III (GenBank Accession NM_013235.2, incorporated herein as SEQ ID NO: 860) were also tested. ISIS Number 25690 and ISIS Number 25691 are 5-10-52′-MOE gapmer compounds, 20 nucleotides in length, with phosphorothioate internucleoside linkages throughout the oligomeric compound. All cytidine residues are 5-methylcytidines. Transfections were performed using the methods described herein. Cells were prepared for flow cytometry 48-hours after oligonucleotide treatment. Results of these studies are shown in Table 35, where data are expressed as percentage of cells in each phase relative to the untreated control cells in that phase.

Substance	liver toxicity (plasma transaminase levels, weekly) (DIO mice)	Relative luciferase activity (mir-15a miRNA; 3 nM)	Relative luciferase activity (mir-15a miRNA; 10 nM)	Relative luciferase activity (mir-15a miRNA; 30 nM)	% cells in cell cycle phase G1 (T47Dp53 cells)	% cells in cell cycle phase G2/M (T47Dp53 cells)	% cells in cell cycle phase S (T47Dp53 cells)	% cells in cell cycle phase aneuploid (T47Dp53 cells)	% cells in cell cycle phase subG1 (T47Dp53 cells)	further results
TGAGCTACAGTGCTTCATCTCA [ISIS 340927] (chemistry not given here) [5-10-7 2′-MOE gapmer PS; targets mature mir-143]	did not cause significant increases in liver toxicity									insulin levels (DIO mice; two and four week time points, vs saline): effective at reducing insulin levels
TGAGCTACAGTGCTTCATCTCA [ISIS 327901] (chemistry not given here) [uniform 2′-MOE PS; targets mir-143]	did not appear to cause liver toxicity									
327901 (antisense eT*eG*eA*eG*e[5mC]*eT*eA*e[5mC]*eA*eG*eT*eG*e[5mC]*eT*eT*e[5mC]*eA*eT*e[5mC]*eT*e[5mC]*eA) [compound 327901]		83.6	96.6	88.2						
327951 (antisense e[5mC]*eA*e[5mC]*eA*eA*eA*e[5mC]*e[5mC]*eA*eT*eT*eA*eT*eG*eT*eG*e[5mC]*eT*eG*e[5mC]*eT*eA) [compound 327951]		151.0	207.6	137.1						
328759 (antisense eG*eA*eG*eG*eG*dA*dT*dT*dG*dT*dA*dT*dG*dA*dA*e[5mC]*eA*eT*e[5mC]*eT) [compound 328759]					99%	108%	93%	109%	423%	
ACTTTCGGTTATCTAGCTTTA [ISIS 327892] (chemistry not given here) [uniform 2′-MOE PS; targets mir-131-2/mir-9]	did not appear to cause liver toxicity									
327902 (antisense eG*eG*e[5mC]*eT*eG*eT*e[5mC]*eA*eA*eT*eT*e[5mC]*eA*eT*eA*eG*eG*eT*e[5mC]*eA*eG) [compound 327902]					100%	102%	98%	97%	155%	
327905 (antisense e[5mC]*eA*eG*eA*e[5mC]*eT*e[5mC]*e[5mC]*eG*eG*eT*eG*eG*eA*eA*eT*eG*eA*eA*eG*eG*eA) [compound 327905]					112%	104%	80%	103%	109%	
342673 (antisense eA*eG*eA*e[5mC]*eT*eA*eG*e[5mC]*eG*eG*eT*eA*eT*e[5mC]*eT*eT*eT*eA*eT*e[5mC]*e[5mC]*e[5mC]) [compound 342673]		104.5	82.6	85.7						
